Key:
Assay type in all cases: biochemical
[1] = molecular target: T1, Bovine milk xanthine oxidase (E.C. 1.2.3.2.), XO concentrate by prior art 2 (Waud et al. 1975), E280/E450 ratio 4.8 (Bos taurus, UniProt P80457); test: Kinetic parameters (Km, Vmax, KI) of XO concentrate prepared by prior art method of Waud et al.; details: for Vmax with xanthine / Vmax with hypoxanthine: XO by prior art 2
T1 construct: Bovine milk XO was purified using three different methods; from tissue; host or cells: bovine milk (purified in-house by the method of Waud et al. 1975)
T1 sequence (P80457 whole entry): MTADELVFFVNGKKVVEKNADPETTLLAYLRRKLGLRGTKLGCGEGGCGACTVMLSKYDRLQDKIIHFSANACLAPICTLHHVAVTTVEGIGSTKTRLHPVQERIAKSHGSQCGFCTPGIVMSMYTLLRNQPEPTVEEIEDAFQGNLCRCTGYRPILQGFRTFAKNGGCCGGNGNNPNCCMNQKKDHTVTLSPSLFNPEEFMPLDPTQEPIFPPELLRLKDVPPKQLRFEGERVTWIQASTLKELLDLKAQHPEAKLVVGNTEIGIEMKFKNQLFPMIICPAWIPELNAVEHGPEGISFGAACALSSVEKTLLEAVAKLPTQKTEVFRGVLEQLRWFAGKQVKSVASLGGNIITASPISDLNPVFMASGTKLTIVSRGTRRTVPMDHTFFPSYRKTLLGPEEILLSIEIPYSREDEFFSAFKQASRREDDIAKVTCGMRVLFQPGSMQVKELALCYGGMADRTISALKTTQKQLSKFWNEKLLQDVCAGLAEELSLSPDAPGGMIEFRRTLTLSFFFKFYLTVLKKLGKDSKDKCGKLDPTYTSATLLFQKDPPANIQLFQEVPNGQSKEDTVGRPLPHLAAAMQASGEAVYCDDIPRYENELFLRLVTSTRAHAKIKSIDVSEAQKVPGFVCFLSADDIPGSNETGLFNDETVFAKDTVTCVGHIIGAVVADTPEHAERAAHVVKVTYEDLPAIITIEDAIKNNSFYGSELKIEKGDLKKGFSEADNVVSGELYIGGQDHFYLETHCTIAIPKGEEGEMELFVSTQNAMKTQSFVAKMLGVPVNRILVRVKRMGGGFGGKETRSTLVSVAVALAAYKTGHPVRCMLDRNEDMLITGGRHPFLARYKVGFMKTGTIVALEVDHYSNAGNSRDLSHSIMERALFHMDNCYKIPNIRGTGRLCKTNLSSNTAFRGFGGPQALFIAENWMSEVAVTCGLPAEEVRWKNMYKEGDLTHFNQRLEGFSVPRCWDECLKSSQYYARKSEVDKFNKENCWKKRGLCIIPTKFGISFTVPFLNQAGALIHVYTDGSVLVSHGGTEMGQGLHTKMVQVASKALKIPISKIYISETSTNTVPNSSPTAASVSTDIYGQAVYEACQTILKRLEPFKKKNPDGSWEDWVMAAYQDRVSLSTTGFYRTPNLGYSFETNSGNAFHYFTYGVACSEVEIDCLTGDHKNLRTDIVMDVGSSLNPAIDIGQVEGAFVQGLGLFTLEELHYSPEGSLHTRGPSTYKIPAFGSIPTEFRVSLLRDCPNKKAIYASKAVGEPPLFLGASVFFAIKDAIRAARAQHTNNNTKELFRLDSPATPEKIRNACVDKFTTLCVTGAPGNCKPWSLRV
Procedure: (§1) Bovine milk XO was purified using three different methods and the purified XO enzyme concentrate preparation from each method was assayed for its kinetic parameters.
(§2) The first method used was that of Horecker and Heppel (Methods in Enzymology, Vol. 2, pp. 482-485, 1955). […] The second method was that of Waud et al. (Arch. Biochem. and Biophys., Vol. 169, pp. 695-701, 1975). […] The third method was that described above for the preparation of the XO concentrate of this invention.
(§3) The concentration of the substrate was varied over a gradient of initial concentrations of one to nine millimolar. […] Three replicates of each assay were performed at each concentration of substrate. Buffer pH was monitored constantly and the percent oxygen saturation was maintained at approximately 75%. Lineweaver-Burk and Hanes plots were then constructed from the collected data.
(§4) Lineweaver-Burk and Hanes plots were constructed from the data and both Km and Vmax determined therefrom.
(§5) Experimental conditions for this part of the study were similar to the preceding experiments. […] From the collected data, Lineweaver-Burk plots for competitive inhibition were constructed.

[2] = molecular target: T2, Bovine milk xanthine oxidase (E.C. 1.2.3.2.), XO concentrate of this invention, E280/E450 ratio 2.0 to 4.1 (Bos taurus, UniProt P80457); test: Kinetic parameters (Km, Vmax, KI) of XO concentrate of this invention; details: for Vmax with xanthine / Vmax with hypoxanthine: XO of this invention
T2 construct: Bovine milk XO was purified using three different methods; from tissue; host or cells: bovine milk (purified in-house by the method of the invention)
T2 sequence (P80457 whole entry): as above
Procedure: as §1, §2, §3, §4, §5

[3] = molecular target: T3, Bovine milk xanthine oxidase (E.C. 1.2.3.2.), XO concentrate by prior art 1 (Horecker and Heppel 1955), E280/E450 ratio 6.1 (Bos taurus, UniProt P80457); test: Kinetic parameters (Km, Vmax, KI) of XO concentrate prepared by prior art method of Horecker and Heppel; details: for Vmax with xanthine / Vmax with hypoxanthine: XO by prior art 1
T3 construct: Bovine milk XO was purified using three different methods; from tissue; host or cells: bovine milk (purified in-house by the method of Horecker and Heppel 1955)
T3 sequence (P80457 whole entry): as above
Procedure: as §1, §2, §3, §4, §5

Question: What does the source list for `O=c1[nH]c(=O)c2[nH]cnc2[nH]1` [xanthine]?
Answer: Vmax with xanthine ([1]; pH 8.3): 2.8 I.U.; Vmax with xanthine ([1]; pH 8.7): 2.16 I.U.; Vmax with xanthine ([2]; pH 8.3): 4.76 I.U.; Vmax with xanthine ([2]; pH 8.7): 3.125 I.U.; Vmax with xanthine ([3]; pH 8.3): 2.0 I.U.; Vmax with xanthine ([3]; pH 8.7): 2.03 I.U.

Question: `O=c1[nH]cnc2nc[nH]c12` [hypoxanthine] was tested. Which Vmax with hypoxanthine ([1]; pH 8.3) did it give?
Answer: 1.31 I.U

Question: And the Vmax with hypoxanthine ([1]; pH 8.7)?
Answer: 0.463 I.U.

Question: And the Vmax with hypoxanthine ([2]; pH 8.3)?
Answer: 1.47 I.U.

Question: And the Vmax with hypoxanthine ([2]; pH 8.7)?
Answer: 0.666 I.U.

Question: What about the Vmax with hypoxanthine ([3]; pH 8.3) of the same compound?
Answer: 1.25 I.U.

Question: And the Vmax with hypoxanthine ([3]; pH 8.7)?
Answer: 0.448 I.U.

Question: `Nc1nc2ncc(CNc3ccc(C(=O)N[C@@H](CCC(=O)O)C(=O)O)cc3)nc2c(=O)[nH]1` [folic acid] was tested. Which Ki [1] did it give?
Answer: 1.69 µM

Question: And the Ki ([2]; read-out: KI with folic acid)?
Answer: 1.15 µM

Question: And the Ki [3]?
Answer: 1.79 µM
